We go through 7 molecules from patent US8664203B2, “Thiazole derivatives and their use as P2Y12 receptor antagonists” (Actelion Pharmaceuticals Ltd., priority 2009, dated 2014).

Usually IC50 stands for the concentration that gives 50% inhibition.

In this assay the target is T1, human P2Y12 receptor (Homo sapiens, UniProt Q9H244).
T1 construct: expressed in transfected cells; host or cells: CHO cells
T1 sequence (Q9H244 whole entry): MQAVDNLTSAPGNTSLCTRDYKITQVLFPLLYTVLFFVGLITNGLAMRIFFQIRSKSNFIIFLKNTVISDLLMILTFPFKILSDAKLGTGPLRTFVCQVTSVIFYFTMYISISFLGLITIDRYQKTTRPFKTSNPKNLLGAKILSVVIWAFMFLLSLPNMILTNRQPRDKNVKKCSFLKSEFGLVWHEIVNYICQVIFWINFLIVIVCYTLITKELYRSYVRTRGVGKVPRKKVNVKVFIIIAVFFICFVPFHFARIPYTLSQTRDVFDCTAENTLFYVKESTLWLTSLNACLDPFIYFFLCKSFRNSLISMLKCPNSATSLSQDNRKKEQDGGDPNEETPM
Nature of the assay: P2Y12 receptor binding assay. Particulars: CHO cells with recombinant expression of the human P2Y12 receptor; tritium-labeled 2-methyl-S-ADP; RT, 2 hours. The method, then:
P2Y12 Receptor Binding Assay
Chinese Hamster Ovary (CHO) cells with recombinant expression of the human P2Y12 receptor were cultured in 24 well cell-culture plates. Cells were washed three times with binding buffer (50 mM Tris pH 7.4, 100 mM NaCl, 1 mM EDTA, 0.5% BSA). The cells were then incubated with 0.5 ml per well binding buffer containing tritium-labeled 2-methyl-thio-adenosine 5′-diphosphate (2-methyl-S-ADP) (between 100′000 and 300′000 dpm per well) and various concentrations of test compounds. After incubation at RT for 2 hours, cells were washed three times with binding buffer. Then, cells were solubilized by addition of 0.5 ml solubilization buffer (SDS, NaOH, EDTA). The content of each well was then transferred into beta-counter vials and 2.0 ml of Ultima Gold Scintillation liquid was added.
On to `CCCCOC(=O)N1CCN(C(=O)[C@H](CCC(=O)O)NC(=O)c2nc(-c3ccccc3)sc2Br)CC1` [Example 15, 4-{(S)-2-[(5-Bromo-2-phenyl-thiazole-4-carbonyl)-amino]-4-carboxy-butyryl}-piperazine-1-carboxylic acid butyl ester], for which the IC50 came to 41 nM. In the case of `CCCCOC(=O)N1CCN(C(=O)CNC(=O)c2nc(-c3ccccc3)c(-c3ccccc3)s2)CC1` [Example 50, 4-{2-[(4,5-Diphenyl-thiazole-2-carbonyl)-amino]-acetyl}-piperazine-1-carboxylic acid butyl ester], the IC50 is 1160 nM.

Consider `CCCCOC(=O)N1CCN(C(=O)CNC(=O)c2nc(-c3ccccc3)sc2CCC(=O)O)CC1` [Example 33, 4-(2-{[5-(2-Carboxy-ethyl)-2-phenyl-thiazole-4-carbonyl]-amino}-acetyl)-piperazine-1-carboxylic acid butyl ester], for which the IC50 worked out at 31 nM. In the case of `CCCCOC(=O)N1CCN(C(=O)[C@H](CCC(=O)O)NC(=O)c2nc(-c3ccccc3)sc2N2CC[C@H](OC)C2)CC1` [Example 25, 4-((S)-4-Carboxy-2-{[5-((S)-3-methoxy-pyrrolidin-1-yl)-2-phenyl-thiazole-4-carbonyl]-amino}-butyryl)-piperazine-1-carboxylic acid butyl ester] it was 3 nM; in that of `CCOC(=O)N1CCN(C(=O)[C@H](Cc2ccc(P(=O)(O)O)cc2)NC(=O)c2csc(-c3ccccc3)n2)CC1` [Example 13, 4-[(S)-2-[(2-Phenyl-thiazole-4-carbonyl)-amino]-3-(4-phosphono-phenyl)-propionyl]-piperazine-1-carboxylic acid ethyl ester], 2 nM; in that of `CCCCOC(=O)N1CCN(C(=O)[C@H](CCC(=O)O)NC(=O)c2nc(-c3ccccc3)sc2[C@H]2C[C@@H]2COC)CC1` [Example 18, 4-((S)-4-Carboxy-2-{[5-((1S,2S)-2-methoxymethyl-cyclopropyl)-2-phenyl-thiazole-4-carbonyl]-amino}-butyryl)-piperazine-1-carboxylic acid butyl ester], 11 nM. In the case of `CCCCOC(=O)N1CCN(C(=O)CNC(=O)c2nc(-c3ccccc3)sc2/C=C/C(=O)OCC)CC1` [Example 30, 4-(2-{[5-((E)-2-Ethoxycarbonyl-vinyl)-2-phenyl-thiazole-4-carbonyl]-amino}-acetyl)-piperazine-1-carboxylic acid butyl ester] it was 268 nM.
